In the NIST ThermoML archive (doi:10.1016/j.fluid.2004.12.012):
Numbers after ± are expanded uncertainties.

Key:
[1] = Molar enthalpy of transition or fusion; details: Crystal; DSC
[2] = Crystal; DTA

Molar enthalpy of transition or fusion [1] | Normal melting temperature [2] | SMILES
4.94 ± 0.148 kcal/mol | 40.5 ± 0.5 °C | COc1cccc(C=O)c1O [2-hydroxy-3-methoxybenzaldehyde]
6.08 ± 0.179 kcal/mol | 64.1 ± 0.5 °C | CCOc1cccc(C=O)c1O [3-ethoxysalicylaldehyde]
5.73 ± 0.167 kcal/mol | 82.4 ± 0.5 °C | COc1cc(C=O)ccc1O [vanillin]

SMILES | Molar enthalpy of transition or fusion [1] | Normal melting temperature [2]
CCOc1cc(C=O)ccc1O [3-ethoxy-4-hydroxybenzaldehyde] | 6.06 ± 0.174 kcal/mol | 76.7 ± 0.5 °C
